Values of other authors as cited in patent publication US20240358662A1, “COMPOSITIONS, METHODS AND SYSTEMS FOR AEROSOL DRUG DELIVERY” (ASTRAZENECA PHARMACEUTICALS LP, priority 2021, published 2024).

Settings: for Latent Heat @ Boiling Point: at boiling point

Structure (SMILES): FCC(F)(F)F [HFA-134a, 1,1,1,2-tetrafluoroethane]
- Liquid Density @ 20° C.: 1.23 g/mL
- Liquid Viscosity @ 20° C. (mPa · S): 0.211 mPa · S
- Surface Tension @ 20° C. (mN/m): 8.09 mN/m
- Vapor Pressure @ 20° C. (kPa): 570 kPa
- Latent Heat @ 25° C.: 177.7 kJ/kg
- Latent Heat @ Boiling Point: 216.7 kJ/kg

Structure (SMILES): FC(C(F)(F)F)C(F)(F)F [HFA-227ea, 1,1,1,2,3,3,3-Heptafluoropropane]
- Liquid Density @ 20° C.: 1.41 g/mL
- Liquid Viscosity @ 20° C. (mPa · S): 0.267 mPa · S
- Surface Tension @ 20° C. (mN/m): 7.50 mN/m
- Vapor Pressure @ 20° C. (kPa): 390 kPa
- Latent Heat @ 25° C.: 110.97 kJ/kg
- Latent Heat @ Boiling Point: 131.4 kJ/kg

Structure (SMILES): CC(F)F [HFC-152a, 1,1-Difluoroethane]
- Liquid Density @ 20° C.: 0.91 g/mL
- Liquid Viscosity @ 20° C. (mPa · S): 0.171 mPa · S
- Surface Tension @ 20° C. (mN/m): 10.4 mN/m
- Vapor Pressure @ 20° C. (kPa): 510 kPa
- Latent Heat @ 25° C.: 279.1 kJ/kg
- Latent Heat @ Boiling Point: 318.4 kJ/kg

Structure (SMILES): C=C(F)C(F)(F)F [HFO-1234yf, 2,3,3,3-Tetrafluoropropene]
- Liquid Density @ 20° C.: 1.11 g/mL
- Liquid Viscosity @ 20° C. (mPa · S): 0.164 mPa · S
- Surface Tension @ 20° C. (mN/m): 6.8 mN/m
- Vapor Pressure @ 20° C. (kPa): 592 kPa
- Latent Heat @ 25° C.: 145.4 kJ/kg
- Latent Heat @ Boiling Point: 180.5 kJ/kg

Structure (SMILES): FC=CC(F)(F)F [HFO-1234ze, 1,3,3,3-tetrafluoropropene]
- Liquid Density @ 20° C.: 1.18 g/mL
- Liquid Viscosity @ 20° C. (mPa · S): 0.206^3 mPa · S
- Surface Tension @ 20° C. (mN/m): 8.9 mN/m
- Vapor Pressure @ 20° C. (kPa): 427 kPa
- Latent Heat @ 25° C.: 166.8 kJ/kg
- Latent Heat @ Boiling Point: 195.43 kJ/kg
